{"source": "BindingDB's records for PubMed 1501121", "about": "(Sanofi Recherche, 1992)", "key": {"[1]": {"target": "5-hydroxytryptamine receptor 2A (Rattus norvegicus, UniProt P14842)", "sequence (P14842 whole entry)": "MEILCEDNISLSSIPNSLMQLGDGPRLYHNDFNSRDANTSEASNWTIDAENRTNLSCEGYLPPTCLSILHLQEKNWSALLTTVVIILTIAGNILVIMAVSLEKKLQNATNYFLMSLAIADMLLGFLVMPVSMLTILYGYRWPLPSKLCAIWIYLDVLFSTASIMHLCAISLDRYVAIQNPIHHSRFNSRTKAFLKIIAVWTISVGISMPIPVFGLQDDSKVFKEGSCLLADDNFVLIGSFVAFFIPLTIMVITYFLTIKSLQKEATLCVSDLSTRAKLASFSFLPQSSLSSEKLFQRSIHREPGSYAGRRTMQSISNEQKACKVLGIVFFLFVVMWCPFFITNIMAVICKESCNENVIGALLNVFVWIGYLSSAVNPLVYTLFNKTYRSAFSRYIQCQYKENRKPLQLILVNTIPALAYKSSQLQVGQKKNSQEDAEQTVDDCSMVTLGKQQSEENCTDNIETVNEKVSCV"}, "[2]": {"target": "D(2) dopamine receptor (Rattus norvegicus, UniProt P61169)", "sequence (P61169 whole entry)": "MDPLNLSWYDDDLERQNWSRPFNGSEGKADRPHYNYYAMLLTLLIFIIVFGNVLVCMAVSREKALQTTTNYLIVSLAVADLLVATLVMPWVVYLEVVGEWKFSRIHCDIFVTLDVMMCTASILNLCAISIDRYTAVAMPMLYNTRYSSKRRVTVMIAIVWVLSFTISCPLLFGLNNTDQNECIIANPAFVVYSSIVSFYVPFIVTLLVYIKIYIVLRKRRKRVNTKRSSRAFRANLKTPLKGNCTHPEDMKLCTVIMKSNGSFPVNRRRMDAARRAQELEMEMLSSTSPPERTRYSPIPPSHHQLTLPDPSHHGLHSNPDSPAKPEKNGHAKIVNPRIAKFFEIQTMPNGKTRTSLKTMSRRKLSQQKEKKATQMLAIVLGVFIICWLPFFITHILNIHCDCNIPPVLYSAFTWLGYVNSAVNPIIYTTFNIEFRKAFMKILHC"}, "[3]": {"target": "5-hydroxytryptamine 1D receptor (Bos taurus, UniProt Q8MI13)", "sequence (Q8MI13 whole entry)": "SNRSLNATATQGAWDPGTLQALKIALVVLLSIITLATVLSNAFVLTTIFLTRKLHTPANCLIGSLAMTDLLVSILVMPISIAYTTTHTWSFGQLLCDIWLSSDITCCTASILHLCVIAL"}, "[4]": {"target": "5-hydroxytryptamine receptor 1B (Rattus norvegicus, UniProt P28564)", "sequence (P28564 whole entry)": "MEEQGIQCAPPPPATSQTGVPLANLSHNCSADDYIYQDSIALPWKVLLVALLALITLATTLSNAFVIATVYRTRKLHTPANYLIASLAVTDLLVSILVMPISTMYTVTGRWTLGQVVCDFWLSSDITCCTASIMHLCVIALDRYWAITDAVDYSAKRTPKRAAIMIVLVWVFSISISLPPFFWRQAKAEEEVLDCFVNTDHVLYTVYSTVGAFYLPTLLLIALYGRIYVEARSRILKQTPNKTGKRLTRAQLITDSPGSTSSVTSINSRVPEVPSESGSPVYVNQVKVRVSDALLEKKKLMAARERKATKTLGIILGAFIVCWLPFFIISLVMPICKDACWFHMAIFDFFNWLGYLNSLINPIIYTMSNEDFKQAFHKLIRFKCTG"}, "[5]": {"target": "T1, Alpha-1A adrenergic receptor (Rattus norvegicus, UniProt P43140)", "T1 sequence (P43140 whole entry)": "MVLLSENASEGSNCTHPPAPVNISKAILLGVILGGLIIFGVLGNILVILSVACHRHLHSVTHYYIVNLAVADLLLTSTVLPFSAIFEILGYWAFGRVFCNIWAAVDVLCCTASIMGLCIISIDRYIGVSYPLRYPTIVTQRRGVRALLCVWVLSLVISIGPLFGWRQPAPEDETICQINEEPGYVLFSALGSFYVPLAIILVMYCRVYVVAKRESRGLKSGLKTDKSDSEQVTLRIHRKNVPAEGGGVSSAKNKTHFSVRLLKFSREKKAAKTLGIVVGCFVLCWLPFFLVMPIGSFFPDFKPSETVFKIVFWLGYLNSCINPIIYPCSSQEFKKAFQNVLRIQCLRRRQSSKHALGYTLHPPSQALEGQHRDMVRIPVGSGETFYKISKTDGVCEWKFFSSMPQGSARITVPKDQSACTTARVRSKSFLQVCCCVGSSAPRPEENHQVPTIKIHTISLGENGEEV"}, "[6]": {"target": "Sodium channel protein type 10 subunit alpha (Rattus norvegicus, UniProt Q62968)", "sequence (Q62968 whole entry)": "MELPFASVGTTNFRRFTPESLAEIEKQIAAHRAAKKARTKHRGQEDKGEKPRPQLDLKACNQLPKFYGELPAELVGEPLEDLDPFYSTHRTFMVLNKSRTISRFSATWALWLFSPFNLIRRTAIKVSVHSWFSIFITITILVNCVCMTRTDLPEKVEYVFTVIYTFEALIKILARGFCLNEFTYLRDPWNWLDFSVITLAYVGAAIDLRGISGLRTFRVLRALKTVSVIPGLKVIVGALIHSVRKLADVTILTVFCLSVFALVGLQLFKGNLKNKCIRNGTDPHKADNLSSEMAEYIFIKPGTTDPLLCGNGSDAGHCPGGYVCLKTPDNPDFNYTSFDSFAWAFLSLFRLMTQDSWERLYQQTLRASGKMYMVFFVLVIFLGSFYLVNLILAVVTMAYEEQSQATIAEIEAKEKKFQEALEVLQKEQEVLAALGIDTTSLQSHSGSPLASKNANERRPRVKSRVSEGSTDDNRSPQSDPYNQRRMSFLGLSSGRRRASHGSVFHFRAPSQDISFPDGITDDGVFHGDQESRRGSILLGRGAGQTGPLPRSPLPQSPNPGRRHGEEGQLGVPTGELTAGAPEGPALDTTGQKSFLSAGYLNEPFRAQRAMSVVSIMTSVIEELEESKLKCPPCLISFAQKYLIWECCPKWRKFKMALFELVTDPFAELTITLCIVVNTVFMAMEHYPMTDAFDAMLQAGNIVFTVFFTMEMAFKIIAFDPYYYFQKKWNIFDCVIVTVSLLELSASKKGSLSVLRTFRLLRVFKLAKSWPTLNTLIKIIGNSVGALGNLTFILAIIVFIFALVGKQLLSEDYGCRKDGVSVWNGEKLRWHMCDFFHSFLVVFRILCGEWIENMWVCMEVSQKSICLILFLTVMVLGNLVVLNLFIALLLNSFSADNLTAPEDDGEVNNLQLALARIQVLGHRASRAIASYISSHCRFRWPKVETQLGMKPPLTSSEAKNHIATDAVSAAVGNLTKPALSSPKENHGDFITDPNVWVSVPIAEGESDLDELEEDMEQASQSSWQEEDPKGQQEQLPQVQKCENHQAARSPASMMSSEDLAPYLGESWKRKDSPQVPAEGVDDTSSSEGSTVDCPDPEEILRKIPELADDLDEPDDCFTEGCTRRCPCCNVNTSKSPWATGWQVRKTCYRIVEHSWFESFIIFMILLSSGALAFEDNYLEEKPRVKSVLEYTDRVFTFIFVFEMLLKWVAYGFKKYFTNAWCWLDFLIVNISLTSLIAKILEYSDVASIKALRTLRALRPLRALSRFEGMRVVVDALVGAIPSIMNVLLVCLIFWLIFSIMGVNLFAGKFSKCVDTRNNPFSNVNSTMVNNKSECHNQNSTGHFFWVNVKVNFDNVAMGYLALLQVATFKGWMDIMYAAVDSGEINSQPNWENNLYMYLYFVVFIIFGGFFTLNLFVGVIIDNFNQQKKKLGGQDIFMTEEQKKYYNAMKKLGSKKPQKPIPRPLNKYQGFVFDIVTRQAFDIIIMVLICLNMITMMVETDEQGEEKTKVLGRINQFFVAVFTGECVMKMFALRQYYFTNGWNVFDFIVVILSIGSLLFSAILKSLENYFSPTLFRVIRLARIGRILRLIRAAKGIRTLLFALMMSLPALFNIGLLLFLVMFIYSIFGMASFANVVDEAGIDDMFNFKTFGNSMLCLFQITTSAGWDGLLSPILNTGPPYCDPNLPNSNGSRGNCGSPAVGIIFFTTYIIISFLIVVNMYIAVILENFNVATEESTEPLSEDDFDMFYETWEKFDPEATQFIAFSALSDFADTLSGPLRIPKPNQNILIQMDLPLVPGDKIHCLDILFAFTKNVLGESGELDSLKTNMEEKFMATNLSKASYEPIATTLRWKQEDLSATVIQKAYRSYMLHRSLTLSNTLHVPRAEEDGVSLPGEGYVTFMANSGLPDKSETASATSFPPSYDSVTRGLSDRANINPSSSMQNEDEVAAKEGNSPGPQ"}, "[7]": {"target": "T2, 5-hydroxytryptamine receptor 2C (Sus scrofa, UniProt G7ZKZ7)", "T2 sequence (G7ZKZ7 whole entry)": "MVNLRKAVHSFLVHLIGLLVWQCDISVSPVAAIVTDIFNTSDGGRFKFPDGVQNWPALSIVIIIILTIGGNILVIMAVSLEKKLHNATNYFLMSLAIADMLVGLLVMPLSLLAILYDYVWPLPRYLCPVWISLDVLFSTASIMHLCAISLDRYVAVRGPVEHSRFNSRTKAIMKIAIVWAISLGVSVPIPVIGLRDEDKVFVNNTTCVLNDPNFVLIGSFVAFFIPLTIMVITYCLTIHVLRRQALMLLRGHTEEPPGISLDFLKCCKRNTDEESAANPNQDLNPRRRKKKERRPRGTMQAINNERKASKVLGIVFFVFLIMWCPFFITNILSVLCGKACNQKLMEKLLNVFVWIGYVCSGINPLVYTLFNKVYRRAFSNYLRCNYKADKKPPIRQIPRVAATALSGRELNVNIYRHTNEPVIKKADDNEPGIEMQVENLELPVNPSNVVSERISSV"}, "[8]": {"target": "T3, Alpha-2C adrenergic receptor (Rattus norvegicus, UniProt P22086)", "T3 sequence (P22086 whole entry)": "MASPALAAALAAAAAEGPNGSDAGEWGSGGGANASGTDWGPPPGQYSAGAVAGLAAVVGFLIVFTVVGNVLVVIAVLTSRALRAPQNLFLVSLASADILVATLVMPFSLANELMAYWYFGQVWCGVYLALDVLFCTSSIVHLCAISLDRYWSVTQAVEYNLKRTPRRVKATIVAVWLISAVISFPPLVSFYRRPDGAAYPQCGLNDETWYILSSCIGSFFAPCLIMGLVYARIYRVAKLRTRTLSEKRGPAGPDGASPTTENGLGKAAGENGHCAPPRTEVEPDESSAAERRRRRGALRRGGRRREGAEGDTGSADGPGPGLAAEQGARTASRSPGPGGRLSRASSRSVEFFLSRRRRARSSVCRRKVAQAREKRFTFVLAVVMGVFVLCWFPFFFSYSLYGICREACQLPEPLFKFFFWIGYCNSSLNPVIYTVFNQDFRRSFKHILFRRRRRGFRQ"}, "[9]": {"target": "D(1A) dopamine receptor (Rattus norvegicus, UniProt P18901)", "sequence (P18901 whole entry)": "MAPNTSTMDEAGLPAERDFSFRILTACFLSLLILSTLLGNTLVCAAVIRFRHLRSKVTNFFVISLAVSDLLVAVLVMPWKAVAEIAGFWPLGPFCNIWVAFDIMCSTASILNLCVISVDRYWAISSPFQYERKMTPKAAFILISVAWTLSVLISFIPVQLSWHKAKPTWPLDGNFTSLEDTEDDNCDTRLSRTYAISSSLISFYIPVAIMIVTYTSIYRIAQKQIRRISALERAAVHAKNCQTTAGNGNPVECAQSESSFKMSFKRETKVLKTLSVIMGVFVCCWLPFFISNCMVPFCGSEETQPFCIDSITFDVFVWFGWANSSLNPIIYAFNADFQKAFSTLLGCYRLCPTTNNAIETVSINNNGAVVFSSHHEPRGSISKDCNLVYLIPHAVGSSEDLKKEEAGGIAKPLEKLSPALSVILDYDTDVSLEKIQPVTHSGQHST"}, "[10]": {"target": "Histamine H1 receptor (Rattus norvegicus, UniProt P31390)", "sequence (P31390 whole entry)": "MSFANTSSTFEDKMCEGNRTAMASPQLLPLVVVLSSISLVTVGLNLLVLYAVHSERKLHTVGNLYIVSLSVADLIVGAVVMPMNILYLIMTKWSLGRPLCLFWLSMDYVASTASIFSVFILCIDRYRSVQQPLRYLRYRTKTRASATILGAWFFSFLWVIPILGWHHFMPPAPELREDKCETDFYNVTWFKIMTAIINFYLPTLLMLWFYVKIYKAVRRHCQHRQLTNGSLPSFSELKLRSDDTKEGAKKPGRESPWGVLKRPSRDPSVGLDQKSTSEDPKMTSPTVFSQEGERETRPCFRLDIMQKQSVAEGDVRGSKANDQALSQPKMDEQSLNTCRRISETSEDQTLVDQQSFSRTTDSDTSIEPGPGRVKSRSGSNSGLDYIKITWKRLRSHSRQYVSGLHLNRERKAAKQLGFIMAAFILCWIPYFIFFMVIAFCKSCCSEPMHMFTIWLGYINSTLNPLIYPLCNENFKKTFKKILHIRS"}}, "note": "pKi: −log10 of the molar value.", "data": [{"smiles": "CN(C)CCON=C(C=Cc1ccc(O)cc1)c1ccccc1F", "note": "[NSC_6438382]", "values": [{"measurement": "pKi", "setting": "[1]", "result": 8.24}, {"measurement": "pKi", "setting": "[2]", "result": "< 5.00"}, {"measurement": "pKi", "setting": "[3]", "result": "< 5.00"}, {"measurement": "pKi", "setting": "[4]", "result": "< 5.00"}, {"measurement": "pKi", "setting": "[5]", "result": 5.47}, {"measurement": "pKi", "setting": "[6]", "result": "< 5.00"}, {"measurement": "pKi", "setting": "[7]", "result": 6.92}, {"measurement": "pKi", "setting": "[8]", "result": 6.00}, {"measurement": "pKi", "setting": "[9]", "result": 5.05}, {"measurement": "pKi", "setting": "[10]", "result": 5.30}]}]}
